Literature values as cited in patent US6750064B2, “Methods of screening for possible solid forms” (S.S.C.I. Inc., priority 2000, dated 2004).

Details: two hours after the drug was administered

Row | concentration of novobiocin in dog plasma | Compound
1 | no drug detectable | CO[C@@H]1[C@@H](OC(N)=O)[C@@H](O)[C@H](Oc2ccc3c(O)c(NC(=O)c4ccc(O)c(CC=C(C)C)c4)c(=O)oc3c2C)OC1(C)C [crystalline novobiocin, novobiocin]
2 | 29300 ng/mL | CO[C@@H]1[C@@H](OC(N)=O)[C@@H](O)[C@H](Oc2ccc3c(O)c(NC(=O)c4ccc(O)c(CC=C(C)C)c4)c(=O)oc3c2C)OC1(C)C [novobiocin amorphous form, novobiocin]
